Experiment [1] deals with Cacopsylla melanoneura. In words: Insecticidal activity against young stage of Cacopsylla melanoneura in apple plant assessed as mortality at 16.6 g/ha treated for 14 days measured after 7 days relative to control. Format: functional.
For experiment [2], the system named is Cacopsylla melanoneura. The experiment is described as follows: Insecticidal activity against young stage of Cacopsylla melanoneura in apple plant assessed as mortality at 16.6 g/ha treated for 7 days measured after 7 days relative to control. Format: functional.
The test system of experiment [3] is Cacopsylla melanoneura. In words: Insecticidal activity against young stage of Cacopsylla melanoneura in apple plant assessed as mortality at 16.6 g/ha treated for 1 hr measured after 7 days relative to control. It counts as functional.
Experiment [4] deals with Cacopsylla melanoneura. The experiment is described as follows: Insecticidal activity against adult of Cacopsylla melanoneura in apple plant assessed as overwintered female mortality at 16.6 g/ha treated for 7 days measured after 1 day relative to control. Format: functional.
In experiment [5] the test system is Cacopsylla melanoneura. In words: Insecticidal activity against adult of Cacopsylla melanoneura in apple plant assessed as reduction of progeny per female at 16.6 g/ha treated for 1 hr measured after 7 days. It counts as functional, organism-based.
Experiment [6] deals with Cacopsylla melanoneura. In words: Insecticidal activity against adult of Cacopsylla melanoneura in apple plant assessed as overwintered female mortality at 16.6 g/ha treated for 1 hr measured after 3 days relative to control. Format: functional.
The subject of experiment [7] is Cacopsylla melanoneura. The experiment is described as follows: Insecticidal activity against adult of Cacopsylla melanoneura in apple plant assessed as overwintered female mortality at 16.6 g/ha treated for 1 hr measured after 1 day relative to control. It counts as functional.
In experiment [8] the test system is Cacopsylla melanoneura. The experiment is described as follows: Insecticidal activity against adult of Cacopsylla melanoneura in apple plant assessed as reduction of progeny per female at 16.6 g/ha treated for 14 days measured after 7 days. It counts as functional, organism-based.
The subject of experiment [9] is Cacopsylla melanoneura. The experiment is described as follows: Insecticidal activity against adult of Cacopsylla melanoneura in apple plant assessed as overwintered female mortality at 16.6 g/ha treated for 14 days measured after 3 days relative to control. It counts as functional.
For experiment [10], the system named is Cacopsylla melanoneura. In words: Insecticidal activity against adult of Cacopsylla melanoneura in apple plant assessed as overwintered female mortality at 16.6 g/ha treated for 14 days measured after 1 day relative to control. It counts as functional.
Experiment [11] deals with Cacopsylla melanoneura. The experiment is described as follows: Insecticidal activity against adult of Cacopsylla melanoneura in apple plant assessed as reduction of progeny per female at 16.6 g/ha treated for 7 days measured after 7 days. It counts as functional, organism-based.
Experiment [12] relates to Cacopsylla melanoneura. In words: Insecticidal activity against adult of Cacopsylla melanoneura in apple plant assessed as overwintered female mortality at 16.6 g/ha treated for 7 days measured after 3 days relative to control. Format: functional.
Experiment [13] relates to Cacopsylla melanoneura. In words: Insecticidal activity against adult of Cacopsylla melanoneura in apple plant assessed as reduction of progeny per female at 787.5 g/ha treated for 14 days measured after 7 days. Format: functional, organism-based.
In experiment [14] the test system is Cacopsylla melanoneura. The experiment is described as follows: Insecticidal activity against adult of Cacopsylla melanoneura in apple plant assessed as overwintered female mortality at 787.5 g/ha treated for 14 days measured after 3 days relative to control. Format: functional.
Experiment [15] deals with Cacopsylla melanoneura. The experiment is described as follows: Insecticidal activity against adult of Cacopsylla melanoneura in apple plant assessed as overwintered female mortality at 787.5 g/ha treated for 14 days measured after 1 day relative to control. Format: functional.
Experiment [16] relates to Cacopsylla melanoneura. The experiment is described as follows: Insecticidal activity against adult of Cacopsylla melanoneura in apple plant assessed as reduction of progeny per female at 787.5 g/ha treated for 7 days measured after 7 days. Format: functional, organism-based.
Experiment [17] has as its system Cacopsylla melanoneura. In words: Insecticidal activity against adult of Cacopsylla melanoneura in apple plant assessed as overwintered female mortality at 787.5 g/ha treated for 7 days measured after 3 days relative to control. It counts as functional.
In experiment [18] the test system is Cacopsylla melanoneura. In words: Insecticidal activity against adult of Cacopsylla melanoneura in apple plant assessed as overwintered female mortality at 787.5 g/ha treated for 7 days measured after 1 day relative to control. It counts as functional.
Experiment [19] deals with Cacopsylla melanoneura. In words: Insecticidal activity against adult of Cacopsylla melanoneura in apple plant assessed as reduction of progeny per female at 787.5 g/ha treated for 1 hr measured after 7 days. It counts as functional, organism-based.
The subject of experiment [20] is Cacopsylla melanoneura. In words: Insecticidal activity against adult of Cacopsylla melanoneura in apple plant assessed as overwintered female mortality at 787.5 g/ha treated for 1 hr measured after 3 days relative to control. It counts as functional.
Experiment [21] relates to Cacopsylla melanoneura. The experiment is described as follows: Insecticidal activity against adult of Cacopsylla melanoneura in apple plant assessed as overwintered female mortality at 787.5 g/ha treated for 1 hr measured after 1 day relative to control. Format: functional.
Experiment [22] has as its system Cacopsylla melanoneura. The experiment is described as follows: Insecticidal activity against young stage of Cacopsylla melanoneura in apple plant assessed as mortality at 787.5 g/ha treated for 14 days measured after 7 days relative to control. It counts as functional.
The subject of experiment [23] is Cacopsylla melanoneura. The experiment is described as follows: Insecticidal activity against young stage of Cacopsylla melanoneura in apple plant assessed as mortality at 787.5 g/ha treated for 7 days measured after 7 days relative to control. Format: functional.
Experiment [24] relates to Cacopsylla melanoneura. The experiment is described as follows: Insecticidal activity against young stage of Cacopsylla melanoneura in apple plant assessed as mortality at 787.5 g/ha treated for 1 hr measured after 7 days relative to control. It counts as functional.

The source of these data is ChEMBL document CHEMBL3044636, “Effectiveness of five insecticides for the control of adults and young stages of Cacopsylla melanoneura (Förster) (Hemiptera: Psyllidae) in a semi-field trial” (2010).

Molecules are shown by their SMILES. The source made the active and inactive calls. No cut-off for these calls is given here.

On to `CC[C@H](C)[C@H]1O[C@]2(C=C[C@@H]1C)C[C@@H]1C[C@@H](C/C=C(\C)[C@@H](O[C@H]3C[C@H](OC)[C@@H](O[C@H]4C[C@H](OC)[C@@H](O)[C@H](C)O4)[C@H](C)O3)[C@@H](C)/C=C/C=C3\CO[C@@H]4[C@H](O)C(C)=C[C@@H](C(=O)O1)[C@]34O)O2.CO[C@H]1C[C@H](O[C@H]2[C@H](C)O[C@@H](O[C@@H]3/C(C)=C/C[C@@H]4C[C@@H](C[C@]5(C=C[C@H](C)[C@@H](C(C)C)O5)O4)OC(=O)[C@@H]4C=C(C)[C@@H](O)[C@H]5OC/C(=C\C=C\[C@@H]3C)[C@]54O)C[C@@H]2OC)O[C@@H](C)[C@@H]1O` [ABAMECTIN], for which the Activity is 71.7% in the experiment on Cacopsylla melanoneura [1]; 95% in the experiment with Cacopsylla melanoneura [2]; 75% in the experiment on Cacopsylla melanoneura [3]; 16.7% with Cacopsylla melanoneura [4]; 36.7% in the experiment on Cacopsylla melanoneura [6]; 33.3% in the experiment with Cacopsylla melanoneura [7]. In addition, the values for the Activity with Cacopsylla melanoneura [9], with Cacopsylla melanoneura [10] and with Cacopsylla melanoneura [12] were 60%, 43.3% and 30%, respectively. Moreover, the result in the experiment on Cacopsylla melanoneura [5], with Cacopsylla melanoneura [8] and in the experiment with Cacopsylla melanoneura [11] was Active.
As to `CCOP(=S)(OCC)Oc1nc(Cl)c(Cl)cc1Cl` [CHLORPYRIFOS], the result with Cacopsylla melanoneura [13], in the experiment on Cacopsylla melanoneura [16] and in the experiment on Cacopsylla melanoneura [19] was Active. Also, the Activity came to 93.3% in the experiment on Cacopsylla melanoneura [14]; 93.3% in the experiment with Cacopsylla melanoneura [15]; 100% in the experiment with Cacopsylla melanoneura [17]; 100% in the experiment with Cacopsylla melanoneura [18]; 100% with Cacopsylla melanoneura [20]; 100% in the experiment on Cacopsylla melanoneura [21]. For the same molecule, the figures for the Activity in the experiment with Cacopsylla melanoneura [22], in the experiment on Cacopsylla melanoneura [23] and in the experiment on Cacopsylla melanoneura [24] were 100%, 100% and 98.3%, respectively.
